ChEMBL document CHEMBL2021882, “Aglycone-focused randomization of 2-difluoromethylphenyl-type sialoside suicide substrates for neuraminidases” (Bioorg Med Chem, 2012)

Test system: Vibrio cholerae
Description: Inhibition of Vibrio cholerae neuraminidase using 4-MU-NANA as substrate preincubated for 15 mins prior addition of substrate measured at 5 mins intervals by fluorimetry relative to control

COc1ncc(C(F)(F)F)cc1NC(=O)OCc1cn(-c2ccc(O[C@]3(C(=O)O)C[C@H](O)[C@@H](NC(C)=O)[C@H]([C@H](O)[C@H](O)CO)O3)c(C(F)F)c2)nn1
Kinact: 0.091 min⁻¹
T1/2: 7.6 min
